Here are results for one compound from ChEMBL document CHEMBL1136937, “Discovery of a potent class I selective ketone histone deacetylase inhibitor with antitumor activity in vivo and optimized pharmacokinetic properties” (J Med Chem, 2009).

The structures appear in SMILES notation. Activity calls are given as the source filed them. The rule behind the calls is not given here.

The subject of series [1] is HeLa. The series can be described thus: Antiproliferative activity against human P53-deficient HeLa cells after 72 hrs by celltiter-blue cell viability assay. Type of series: functional. A general note: Resazurin is reduced to fluorescent resorufin, in cell work by metabolically active cells.
Series [2] has as its target T1, Histone deacetylase 7 (Homo sapiens, UniProt Q8WUI4).
T1 sequence (Q8WUI4 whole entry): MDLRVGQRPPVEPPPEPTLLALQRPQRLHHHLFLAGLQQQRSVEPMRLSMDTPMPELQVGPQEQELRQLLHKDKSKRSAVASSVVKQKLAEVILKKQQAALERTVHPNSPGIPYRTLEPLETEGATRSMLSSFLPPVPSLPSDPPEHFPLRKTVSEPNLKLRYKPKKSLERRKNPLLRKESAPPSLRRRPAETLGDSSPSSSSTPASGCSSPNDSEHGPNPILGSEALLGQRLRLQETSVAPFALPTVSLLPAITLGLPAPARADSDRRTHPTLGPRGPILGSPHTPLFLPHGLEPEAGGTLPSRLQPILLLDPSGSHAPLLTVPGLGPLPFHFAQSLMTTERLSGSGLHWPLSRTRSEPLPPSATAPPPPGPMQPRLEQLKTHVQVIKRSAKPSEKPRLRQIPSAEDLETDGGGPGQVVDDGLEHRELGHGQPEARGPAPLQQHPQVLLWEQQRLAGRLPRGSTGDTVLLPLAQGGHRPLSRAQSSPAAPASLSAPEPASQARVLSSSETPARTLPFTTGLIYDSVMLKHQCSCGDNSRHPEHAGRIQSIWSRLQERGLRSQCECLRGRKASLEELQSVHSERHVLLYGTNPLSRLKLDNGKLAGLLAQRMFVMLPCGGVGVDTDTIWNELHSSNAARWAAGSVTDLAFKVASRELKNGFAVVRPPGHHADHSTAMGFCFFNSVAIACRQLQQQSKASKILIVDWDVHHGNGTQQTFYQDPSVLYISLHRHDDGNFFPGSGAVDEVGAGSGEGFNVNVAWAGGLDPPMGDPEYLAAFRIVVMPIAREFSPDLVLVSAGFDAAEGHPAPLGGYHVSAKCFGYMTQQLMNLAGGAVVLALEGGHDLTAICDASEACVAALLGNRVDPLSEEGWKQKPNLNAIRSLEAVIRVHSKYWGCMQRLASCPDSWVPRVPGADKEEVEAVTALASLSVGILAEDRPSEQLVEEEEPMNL
The series can be described thus: Inhibition of wild type His-tagged HDAC7 catalytic domain T515-L952 expressed in Escherichia coli.

Series [3] deals with HCT-116. The series can be described thus: Antiproliferative activity against human P53 expressing HCT116 cells after 72 hrs by celltiter-blue cell viability assay. It is filed as functional. As to conditions: Homo sapiens, HCT-116, 72 h.
Series [4] in a line: Volume of distribution at steady state in Sprague-Dawley rat at 3 mg/kg, iv and 3 mg/kg, po. Type of series: ADME, organism-based. As to conditions: in vivo, read-out: Vdss.
Series [5] in a line: Terminal half life in Sprague-Dawley rat at 3 mg/kg, iv and 3 mg/kg, po. It is filed as ADME, organism-based. As to conditions: in vivo, read-out: beta t1/2 (converted).
A short description of series [6]: Terminal half life in Beagle dog at 1 mg/kg, iv and 2 mg/kg, po. It is filed as ADME, organism-based, Canis lupus familiaris. As to conditions: in vivo, read-out: beta t1/2 (converted).
A short description of series [7]: Oral bioavailability in Beagle dog at 2 mg/kg. It is filed as ADME, organism-based, Canis lupus familiaris. The following applies: in vivo.
The nature of series [8]: Plasma concentration in Sprague-Dawley rat at 3 mg/kg, po after 24 hrs. It is filed as ADME, organism-based. Also noted: dose 3 mg/kg, route oral.
The test system of series [9] is HCT-116. The series can be described thus: Antitumor activity against human HCT116 cells xenografted BALB/c nu/nu mouse assessed as reduction in tumor growth at 10 mg/kg, ip administered once daily for 5 days per week. Type of series: functional, organism-based. The arrangement: dose 10 mg/kg.
In series [10] the test system is HCT-116. The series can be described thus: Antitumor activity against human HCT116 cells xenografted nude mouse assessed as reduction in tumor growth at […], ip administered once daily for 5 days per week. It is filed as functional, organism-based. A general note: In xenograft studies the graft and the host belong to different species.

What is called CC50 is the concentration at which the toxic effect on the cells reaches its halfway point. Broadly, the IC50 is the concentration needed to halve the response being measured. In general, bioavailability refers to the share of a dose that reaches the circulation, judged against a reference dose that is usually intravenous. For the compound `CCC(=O)CCCCC[C@H](NC(=O)C1CN(C)C1)c1ncc(-c2cc3ccccc3nc2OC)[nH]1`, the 50% cytotoxic concentration (CC50) was 135 nM in [1] and 220 nM in [3]. Besides, the IC50 in series [2] was more than 10000 nM. In addition, in series [4], the Vd worked out at 7.9 L/kg. In addition, the half-life is 7 h in [5] and 14 h in series [6]. Moreover, in series [7], the bioavailability stood at 31%. Further, in series [8], the concentration at 24 h is more than 100 nM. Moreover, the outcome in series [9] and in series [10] was Active.
